Experiment [1] deals with HCT116 human colorectal carcinoma. Briefly: Cell proliferation assay, HCT116. It counts as cell-based. The following applies: HCT-116, HCT116, 72h exposure, CellTiter-Glo, read-out: EC50 in the cell proliferation assay, HCT116 cell line. The protocol:
(§1) Compounds are tested in a cell proliferation assay using the following cell lines:
(§2) HCT116 human colorectal carcinoma (ATCC)
(§3) Both cell lines are maintained in DMEM/F12 (1:1) media (Gibco) supplemented with 10% FCS at 37° C. in a 5% CO2 humidified incubator.
(§4) Cells are seeded in 96-well plates at 2,000 cells/well and after 24 hours they are exposed to different concentrations of compounds in 0.83% DMSO. Cells are grown for a further 72h, and an equal volume of CellTiter-Glo reagent (Promega) is added to each well. This lyses the cells and generates a luminescent signal proportional to the amount of ATP released (and therefore proportional to the number of cells in the well) that can be detected using a multi-well luminometer.
(§5) The EC50 is defined as the concentration at which a given compound achieves 50% inhibition of control. IC50 values are calculated using the XLfit software package (version 2.0.5).
In general terms: In ATP-based viability assays light output follows the ATP content of the culture.

The test system of experiment [2] is A375 human malignant melanoma. Briefly: Cell proliferation assay, A375. It counts as cell-based. The conditions noted are these: A-375, A375, 72h exposure, CellTiter-Glo, read-out: EC50 in the cell proliferation assay, A375 cell line. On the procedure: as §1
(§6) A375 human malignant melanoma (ATCC)
as §3, §4, §5

Experiment [3] has as its system phospho-ERK in HCT116 human colorectal carcinoma. Briefly: Phospho-ERK cell-based assay, HCT116. The conditions noted are these: HCT-116, HCT116, 2 h or 24 h exposure, p-ERK signal normalised to PI, read-out: EC50 in the phospho-ERK cell-based assay, HCT116 cell line. On the procedure: (§7) Compounds are tested in a cell-based phospho-ERK ELISA using the following cell lines:
as §2, §3
(§8) Cells are seeded in 96-well plates at 2,000 cells/well and after 24 h they are exposed to different concentrations of compounds in 0.83% DMSO. Cells are grown for a further 2 h or 24 h, fixed with formaldehyde (2% final) and permeabilised with methanol. Following blocking with TBST-3% BSA, fixed cells are incubated with primary antibody (anti-phospho ERK from rabbit) over-night at 4° C. Cells are incubated with Propidium Iodide (DNA fluorescent dye) and detection of cellular p-ERK is performed using an anti-rabbit secondary antibody conjugated to the fluorescent Alexa Fluor 488 dye (Molecular probes). The fluorescence is analysed using the Acumen Explorer (TTP Labtech), a laser-scanning microplate cytometer, and the Alexa Fluor 488 signal is normalised to the PI signal (proportional to cell number).
(§9) The EC50 is defined as the concentration at which a given compound achieves a signal half way between the baseline and the maximum response. EC50 values are calculated using the XLfit software package (version 2.0.5).

Experiment [4] has as its system phospho-ERK in A375 human malignant melanoma. Put plainly: Phospho-ERK cell-based assay, A375. The following applies: A-375, A375, 2 h or 24 h exposure, p-ERK signal normalised to PI, read-out: EC50 in the phospho-ERK cell-based assay, A375 cell line. On the procedure:
as §7, §6, §3, §8, §9

Among the data in patent US8841462B2, “Bicyclic heterocycles as MEK kinase inhibitors” (priority 2008, dated 2014) are EC50 values, retold here.

As to `O=C(NOC[C@H](O)CO)c1ccc2sncc2c1Nc1ccc(I)cc1F` [Example 21, 4-(2-Fluoro-4-iodo-phenylamino)-benzo[d]isothiazole-5-carboxylic acid ((R)-2,3-dihydroxy-propoxy)-amide], the EC50 was less than 0.5 µM in experiment [1], less than 0.1 µM in experiment [2], less than 0.1 µM in experiment [3] and less than 0.1 µM in experiment [4].
Consider `O=C(NOCC1CC1)c1ccc2[nH]ncc2c1Nc1ccc(I)cc1F` [Example 16, 4-(2-Fluoro-4-iodo-phenylamino)-1H-indazole-5-carboxylic acid cyclopropylmethoxy-amide], for which the EC50 in experiment [3] was less than 0.1 µM.
As to `O=C(NOC[C@H](O)CO)c1ccc2cnsc2c1Nc1ccc(I)cc1F` [Example 27, 7-(2-Fluoro-4-iodo-phenylamino)-benzo[d]isothiazole-6-carboxylic acid ((R)-2,3-dihydroxy-propoxy)amide], the EC50 in experiment [1] was less than 0.5 µM; in experiment [2] it was less than 0.1 µM; in experiment [3] it was less than 0.1 µM; in experiment [4], less than 0.1 µM.
Consider `O=C(NOC[C@H](O)CO)c1ccc2cnsc2c1Nc1ccc(C2CC2)cc1F` [Example 23, 7-(4-Cyclopropyl-2-fluoro-phenylamino)-benzo[d]isothiazole-6-carboxylic acid ((R)-2,3-dihydroxy-propoxy)-amide], for which the EC50 in experiment [2] and in experiment [4] was less than 0.1 µM each time.
Regarding `O=C(NOCCO)c1ccc2[nH]ncc2c1Nc1ccc(I)cc1F` [Example 5, 4-(2-Fluoro-4-iodo-phenylamino)-1H-indazole-5-carboxylic acid (2-hydroxy-ethoxy)-amide], the EC50 was less than 0.5 µM in experiment [1], less than 0.1 µM in experiment [2] and less than 0.1 µM in experiment [3].
With `O=C(NOCCO)c1ccc2sncc2c1Nc1ccc(I)cc1F` [Example 12, 4-(2-Fluoro-4-iodo-phenylamino)-benzo[d]isothiazole-5-carboxylic acid (2-hydroxy-ethoxy)-amide], the EC50 in experiment [1] is less than 0.5 µM; in experiment [2], less than 0.1 µM; in experiment [3], less than 0.1 µM; in experiment [4], less than 0.1 µM.
For the molecule `O=C(NOCCO)c1ccc2[nH]ncc2c1Nc1ccc(Br)cc1F` [Example 10, 4-(4-Bromo-2-fluoro-phenylamino)-1H-indazole-5-carboxylic acid (2-hydroxy-ethoxy)-amide], the EC50 in experiment [1] was less than 0.5 µM; in experiment [2], less than 0.1 µM; in experiment [3], less than 0.1 µM; in experiment [4], less than 0.1 µM.
Take `C[C@H](O)CONC(=O)c1ccc2sncc2c1Nc1ccc(I)cc1F` [Example 20, 4-(2-Fluoro-4-iodo-phenylamino)-benzo[d]isothiazole-5-carboxylic acid ((S)-2-hydroxy-propoxy)-amide]: the EC50 is less than 0.5 µM in experiment [1], less than 0.1 µM in experiment [2], less than 0.1 µM in experiment [3] and less than 0.1 µM in experiment [4].
In the case of `C[C@H](O)CONC(=O)c1cnc2[nH]ncc2c1Nc1ccc(I)cc1F` [Example 7, 4-(2-Fluoro-4-iodophenylamino)-1H-pyrazolo[3,4-b]pyridine 5-carboxylic acid ((S)-2-hydroxypropoxy)-amide], the EC50 is less than 0.5 µM in experiment [1], less than 0.1 µM in experiment [2], less than 0.1 µM in experiment [3] and less than 0.1 µM in experiment [4].
Turning to `O=C(NOCCO)c1cnc2[nH]ncc2c1Nc1ccc(I)cc1F` [Example 6, 4-(2-Fluoro-4-iodophenylamino)-1H-pyrazolo[3,4-b]pyridine 5-carboxylic acid (2-hydroxyethoxy)-amide], the EC50 in experiment [1] is less than 0.5 µM; in experiment [2], less than 0.1 µM; in experiment [3], less than 0.1 µM; in experiment [4] it was less than 0.1 µM.
As to `CCONC(=O)c1ccc2[nH]ncc2c1Nc1ccc(I)cc1F` [Example 14, 4-(2-Fluoro-4-iodo-phenylamino)-1H-indazole-5-carboxylic acid ethoxy-amide], the EC50 in experiment [1] is less than 0.5 µM; in experiment [2], less than 0.1 µM; in experiment [3], less than 0.1 µM; in experiment [4] it was less than 0.1 µM.
On to `O=C(NOC[C@H](O)CO)c1ccc2[nH]ncc2c1Nc1ccc(I)cc1F` [Example 9, 4-(2-Fluoro-4-iodophenylamino)-1H-indazole-5-carboxylic acid ((R)-2,3-dihydroxy-propoxy)-amide], for which the EC50 in experiment [1] was less than 0.5 µM; in experiment [2] it was less than 0.1 µM; in experiment [3], less than 0.1 µM; in experiment [4], less than 0.1 µM.
Regarding `CC(C)(CO)ONC(=O)c1cnc2[nH]ncc2c1Nc1ccc(I)cc1F` [Example 8, 4-(2-Fluoro-4-iodophenylamino)-1H-pyrazolo[3,4-b]pyridine-5-carboxylic acid (2-hydroxy-1,1-dimethylethoxy)-amide], the EC50 in experiment [1] is less than 0.6 µM; in experiment [2], less than 0.1 µM; in experiment [3], less than 0.1 µM; in experiment [4], less than 0.1 µM.
For `CSc1ccc(Nc2c(C(=O)NOC[C@H](O)CO)ccc3cnsc23)c(F)c1` [Example 22, 7-(2-Fluoro-4-methylsulfanyl-phenylamino)-benzo[d]isothiazole-6-carboxylic acid ((R)-2,3-dihydroxy-propoxy)-amide], the EC50 is less than 0.5 µM in experiment [1], less than 0.1 µM in experiment [2], less than 0.1 µM in experiment [3] and less than 0.1 µM in experiment [4].
Take `O=C(NOCCO)c1ccc2cnsc2c1Nc1ccc(I)cc1F` [Example 26, 7-(2-Fluoro-4-iodo-phenylamino)-benzo[d]isothiazole-6-carboxylic acid (2-hydroxy-ethoxy)-amide]: the EC50 in experiment [3] and in experiment [4] was less than 0.1 µM each time.
For `O=C(NOC[C@H](O)CO)c1ccc2cnsc2c1Nc1ccc(Br)cc1F` [Example 24, 7-(4-Bromo-2-fluoro-phenylamino)-benzo[d]isothiazole-6-carboxylic acid ((R)-2,3-dihydroxy-propoxy)-amide], the EC50 in experiment [1] is less than 0.5 µM; in experiment [2], less than 0.1 µM; in experiment [3], less than 0.1 µM; in experiment [4], less than 0.1 µM.
In the case of `CSc1ccc(Nc2c(C(=O)NOCCO)ccc3[nH]ncc23)c(F)c1` [Example 13, 4-(2-Fluoro-4-methylsulfanyl-phenylamino)-1H-indazole-5-carboxylic acid (2-hydroxy-ethoxy)-amide], the EC50 in experiment [1] is less than 0.5 µM; in experiment [3], less than 0.1 µM.
On to `CONC(=O)c1ccc2[nH]ncc2c1Nc1ccc(I)cc1F` [Example 17, 4-(2-Fluoro-4-iodo-phenylamino)-1H-indazole-5-carboxylic acid methoxy-amide], for which the EC50 in experiment [1] was less than 0.5 µM; in experiment [2], less than 0.1 µM; in experiment [3], less than 0.1 µM; in experiment [4], less than 0.1 µM.
In the case of `O=C(NOCCO)c1ccc2cnsc2c1Nc1ccc(Br)cc1F` [Example 25, 7-(4-Bromo-2-fluoro-phenylamino)-benzo[d]isothiazole-6-carboxylic acid (2-hydroxy-ethoxy)-amide], the EC50 is less than 0.5 µM in experiment [1], less than 0.1 µM in experiment [2], less than 0.1 µM in experiment [3] and less than 0.1 µM in experiment [4].
For the molecule `C[C@H](O)CONC(=O)c1ccc2[nH]ncc2c1Nc1ccc(Br)cc1F` [Example 11, 4-(4-Bromo-2-fluoro-phenylamino)-1H-indazole-5-carboxylic acid ((S)-2-hydroxy-propoxy)-amide], the EC50 in experiment [1] was less than 0.5 µM; in experiment [2], less than 0.1 µM; in experiment [3] it was less than 0.1 µM; in experiment [4], less than 0.1 µM.
